Patent US20130217664A1, “NOVEL COMPOUNDS USEFUL FOR THE TREATMENT OF DEGENERATIVE AND INFLAMMATORY DISEASES” (priority 2012, published 2013)
Read-outs that look alike come from different tables or passages of the source.

Assays:
human JAK3 = target: T1, human JAK3 (Homo sapiens, UniProt P52333); assay: JAK3 inhibition assay; format: biochemical; conditions: recombinant human JAK3 catalytic domain; polyGT substrate
T1 construct: catalytic domain (amino acids 781-1124; catalog number PV3855); purchased Invitrogen PV3855
Outline: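 Radiometric kinase assay: 0.5 ng JAK3 with 2.5 μg polyGT in Tris pH 7.5/MgCl2 buffer, 1 μM ATP plus 0.25 μCi 33P-γ-ATP, 1% DMSO, 45 min at 30 °C, stopped with phosphoric acid.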

[1] = tested on: pSTAT1(2)-luciferase reporter in HeLa cells triggered with human OSM; assay: JAK-STAT signalling assay; format: cell-based; conditions: HeLa cells, pSTAT1(2)-luciferase reporter, human OSM 33 ng/mL, read-out: JAK-STAT IC50
Outline: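 Compound added 60 min before 33 ng/mL (final) human OSM; after overnight stimulation at 37 °C, luciferase signal from a transiently transfected pSTAT1(2) reporter in HeLa cells was read, with LacZ as internal control. EC50 derived from percent-inhibition dose-response curves.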

human TYK2 = target: T2, human TYK2 (Homo sapiens, UniProt P29597); assay: TYK2 inhibition assay; format: biochemical; conditions: recombinant human TYK2 catalytic domain, polyGT substrate
T2 construct: catalytic domain (amino acids 871-1187; catalog number 08-147); purchased Carna Biosciences 08-147
T2 sequence (P29597 871-1187): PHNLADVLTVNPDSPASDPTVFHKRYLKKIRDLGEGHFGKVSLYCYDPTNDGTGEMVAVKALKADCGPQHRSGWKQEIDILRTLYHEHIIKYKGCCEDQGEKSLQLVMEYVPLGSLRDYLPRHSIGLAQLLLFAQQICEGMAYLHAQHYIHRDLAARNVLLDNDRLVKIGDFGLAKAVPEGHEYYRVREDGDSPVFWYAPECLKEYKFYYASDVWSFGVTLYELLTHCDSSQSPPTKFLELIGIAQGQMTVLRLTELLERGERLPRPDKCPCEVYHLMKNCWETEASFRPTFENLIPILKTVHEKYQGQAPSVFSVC
Outline: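 Radiometric kinase reaction run 90 min at 30 °C, stopped with phosphoric acid, washed and scintillation-counted.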

human JAK1 = target: T3, human JAK1 (Homo sapiens, UniProt P23458); assay: JAK1 inhibition assay (polyGT substrate / Ulight-JAK1 peptide); format: biochemical; conditions: recombinant human JAK1 catalytic domain; polyGT or Ulight-JAK1 peptide assay
T3 construct: catalytic domain, amino acids 866-1154; catalog number PV4774; purchased Invitrogen PV4774
Outline: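 Signal scaled between vehicle and 10 μM staurosporine. Radiometric polyGT reactions ran 45 min at 30 °C, counted after phosphoric-acid stop. Ulight peptide reactions ran 60 min at room temperature, fluorescence read after adding Eu-PT66 detection mix with EDTA.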

BA/F3 cell line = assay: BA/F3 viability assay; conditions: Mus musculus, BaF3, 48 h, read-out: BA/F3 IC50
CTLL-2 cell line = assay: CTLL2 viability assay; format: cell-based; conditions: Mus musculus, IL-2 dependent CTLL2 viability, 24 h, ATP-lite
Text: The protocol describes the methods to analyse the activity of compounds on their ability to sustain the IL2-dependent viability of CTLL2.
Final DMSO concentration was 0.1%.

human JAK2 = target: T4, human JAK2 (Homo sapiens, UniProt O60674); assay: JAK2 inhibition assay (polyGT substrate / Ulight-JAK1 peptide); format: biochemical; conditions: recombinant human JAK2 catalytic domain; polyGT or Ulight-JAK1 peptide assay
T4 construct: catalytic domain (amino acids 808-1132; catalog number PV4210); GST; purchased Invitrogen PV4210
Outline: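 Two JAK2 formats: a ^33P-ATP polyGT assay (1 μM cold ATP, 90 min, 30° C., cpm read-out) and a Ulight-JAK1 peptide assay read by Europium-anti-phosphotyrosine fluorescence after 60 min at room temperature.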

T4 sequence (O60674 808-1132): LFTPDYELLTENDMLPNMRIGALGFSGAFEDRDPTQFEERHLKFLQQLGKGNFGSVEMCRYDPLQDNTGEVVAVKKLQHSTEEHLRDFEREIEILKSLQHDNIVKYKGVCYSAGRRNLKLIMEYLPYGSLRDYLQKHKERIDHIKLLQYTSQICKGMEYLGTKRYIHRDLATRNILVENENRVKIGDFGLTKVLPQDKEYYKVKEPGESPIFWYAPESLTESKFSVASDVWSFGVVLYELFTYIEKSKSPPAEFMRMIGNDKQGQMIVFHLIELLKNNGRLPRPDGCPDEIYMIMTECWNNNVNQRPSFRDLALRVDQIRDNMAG
T1 sequence (P52333 781-1124): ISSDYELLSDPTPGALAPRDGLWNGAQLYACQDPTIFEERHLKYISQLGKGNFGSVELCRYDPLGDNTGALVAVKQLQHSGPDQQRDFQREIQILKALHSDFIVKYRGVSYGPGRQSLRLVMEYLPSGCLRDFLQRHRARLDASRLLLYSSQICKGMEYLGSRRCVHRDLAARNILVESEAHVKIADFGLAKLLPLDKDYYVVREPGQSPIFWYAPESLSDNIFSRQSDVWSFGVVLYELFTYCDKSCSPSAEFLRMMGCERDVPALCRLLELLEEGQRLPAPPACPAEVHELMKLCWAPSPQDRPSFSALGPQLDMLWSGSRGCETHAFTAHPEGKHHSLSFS
T3 sequence (P23458 866-1154): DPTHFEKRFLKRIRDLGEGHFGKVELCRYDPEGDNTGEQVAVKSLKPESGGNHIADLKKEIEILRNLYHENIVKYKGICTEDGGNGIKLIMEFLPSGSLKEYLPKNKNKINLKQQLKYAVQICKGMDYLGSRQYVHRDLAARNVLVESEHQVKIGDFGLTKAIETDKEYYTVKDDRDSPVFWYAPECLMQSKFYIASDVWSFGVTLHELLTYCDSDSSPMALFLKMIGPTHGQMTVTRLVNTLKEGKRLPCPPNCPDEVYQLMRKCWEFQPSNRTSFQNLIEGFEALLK

IC50 (human JAK3) | IC50 ([1]; Homo sapiens, HeLa) | IC50 (human TYK2) | IC50 (human JAK1) | IC50 (BA/F3 cell line) | IC50 (human JAK2) | IC50 [1] | SMILES | IC50 (CTLL-2 cell line)
501 to 1000 nM | 1 to 500 nM | 101 to 500 nM | 0.01 to 100 nM | > 5000 nM |  |  | CCc1cc(-c2cncc(F)c2)ccc1N(C)c1cc2c(cn1)ncn2C [Compound 133, N-(2-ethyl-4-(5-fluoropyridin-3-yl)phenyl)-N,1-dimethyl-1H-imidazo[4,5-c]pyridin-6-amine] | 
101 to 500 nM |  | 0.01 to 100 nM | 0.01 to 100 nM | 1000 to 5000 nM | 0.01 to 100 nM |  | CCc1cc(N2CC(F)(F)C2)ncc1N(C)c1cc2c(cn1)ncn2C [Compound 413, [6-(3,3-Difluoro-azetidin-1-yl)-4-ethyl-pyridin-3-yl]-methyl-(1-methyl-1H-imidazo[4,5-c]pyridin-6-yl)-amine] | > 1000 nM
101 to 500 nM | 501 to 1000 nM | 0.01 to 100 nM | 0.01 to 100 nM | > 5000 nM |  |  | CN(c1cc2c(cn1)ncn2C)c1ccc(CNS(C)(=O)=O)cc1F [Compound 269, N-(3-Fluoro-4-(methyl(1-methyl-1H-imidazo[4,5-c]pyridin-6-yl)amino)benzyl)methanesulfonamide] | 
0.01 to 100 nM |  | 0.01 to 100 nM | 0.01 to 100 nM | 1000 to 5000 nM |  |  | CCc1cc(CN(C)S(C)(=O)=O)ccc1N(C)c1cc2c(cn1)ncn2C [Compound 261, N-(3-ethyl-4-(methyl(1-methyl-1H-imidazo[4,5-c]pyridin-6-yl)amino)benzyl)-N-methylmethanesulfonamide] | 501 to 1000 nM
501 to 1000 nM |  | > 1000 nM | 0.01 to 100 nM |  | 101 to 500 nM |  | CC(C)S(=O)(=O)N1CC(c2ccc(N(C)c3cc4c(cn3)ncn4C)c(OC(F)F)c2)C1 [Compound 373, {2-Difluoromethoxy-4-[1-(propane-2-sulfonyl)-azetidin-3-yl]-phenyl}-methyl-(1-methyl-1H-imidazo[4,5-c]pyridin-6-yl)-amine] | > 1000 nM
101 to 500 nM |  | 0.01 to 100 nM | 0.01 to 100 nM |  | 0.01 to 100 nM |  | CCc1cc(C(C#N)N2CCC(C#N)CC2)ccc1N(C)c1cc2c(cn1)ncn2C (stereo not shown) [Compound 435, 1-(Cyano-{3-ethyl-4-[methyl-(1-methyl-1H-imidazo[4,5-c]pyridin-6-yl)-amino]-phenyl}-methyl)-piperidine-4-carbonitrile] | > 1000 nM
101 to 500 nM |  | 101 to 500 nM | 0.01 to 100 nM |  | 0.01 to 100 nM |  | CCc1cc(C2CCCC2)ncc1N(C)c1cc2c(cn1)ncn2C [Compound 433, (6-Cyclopentyl-4-ethyl-pyridin-3-yl)-methyl-(1-methyl-1H-imidazo[4,5-c]pyridin-6-yl)-amine] | > 1000 nM

The remaining lines, values behind:

SMILES | IC50 (human JAK3) | IC50 ([1]; Homo sapiens, HeLa) | IC50 (human TYK2) | IC50 (human JAK1) | IC50 (BA/F3 cell line) | IC50 (human JAK2) | IC50 [1] | IC50 (CTLL-2 cell line)
CCc1cc(CN(CC#N)S(C)(=O)=O)ccc1N(C)c1cc2c(cn1)ncn2C [Compound 388, N-Cyanomethyl-N-{3-ethyl-4-[methyl-(1-methyl-1H-imidazo[4,5-c]pyridin-6-yl)-amino]-benzyl}-methanesulfonamide] | 0.01 to 100 nM |  | 0.01 to 100 nM | 0.01 to 100 nM | 1000 to 5000 nM | 0.01 to 100 nM |  | > 1000 nM
CCc1cc(C(C#N)N2CCNC(=O)C2)ccc1N(C)c1cc2c(cn1)ncn2C (stereo not shown) [Compound 410, {3-Ethyl-4-[methyl-(1-methyl-1H-imidazo[4,5-c]pyridin-6-yl)-amino]-phenyl}-(3-oxo-piperazin-1-yl)-acetonitrile] | 0.01 to 100 nM |  | 0.01 to 100 nM | 0.01 to 100 nM | > 5000 nM | 0.01 to 100 nM |  | > 1000 nM
CCc1cc(C2(CCNS(=O)(=O)C(F)F)COC2)ccc1N(C)c1cc2c(cn1)ncn2C [Compound 397, N-[2-(3-{3-Ethyl-4-[methyl-(1-methyl-1H-imidazo[4,5-c]pyridin-6-yl)-amino]-phenyl}-oxetan-3-yl)-ethyl]-C,C-difluoro-methanesulfonamide] | 0.01 to 100 nM |  | 0.01 to 100 nM | 0.01 to 100 nM | 1000 to 5000 nM | 0.01 to 100 nM |  | > 1000 nM
CCc1cc(CN2CC(F)(F)C2)ccc1N(C)c1cc2c(cn1)ncn2C [Compound 378, [4-(3,3-Difluoro-azetidin-1-ylmethyl)-2-ethyl-phenyl]-methyl-(1-methyl-1H-imidazo[4,5-c]pyridin-6-yl)-amine] |  |  |  |  | > 5000 nM |  |  | > 1000 nM
CCc1cc(C2CN(CCC(F)(F)F)C2)ncc1N(C)c1cc2c(cn1)ncn2C [Compound 341, {4-Ethyl-6-[1-(3,3,3-trifluoro-propyl)-azetidin-3-yl]-pyridin-3-yl}-methyl-(1-methyl-1H-imidazo[4,5-c]pyridin-6-yl)-amine] | > 1000 nM |  | > 1000 nM | 101 to 500 nM | > 5000 nM | > 1000 nM |  | > 1000 nM
CN(c1cc2c(cn1)ncn2C)c1ccc(CNS(C)(=O)=O)cc1OC(F)F [Compound 429, N-{3-Difluoromethoxy-4-[methyl-(1-methyl-1H-imidazo[4,5-c]pyridin-6-yl)-amino]-benzyl}-methanesulfonamide] | 0.01 to 100 nM |  | 101 to 500 nM | 0.01 to 100 nM | > 5000 nM | 0.01 to 100 nM |  | > 1000 nM
CCc1cc(C2CN(C(=O)C(F)F)C2)ccc1N(C)c1cc2c(cn1)ncn2C [Compound 346, 1-(3-{3-Ethyl-4-[methyl-(1-methyl-1H-imidazo[4,5-c]pyridin-6-yl)-amino]-phenyl)-azetidin-1-yl)-2,2-difluoro-ethanone] | 101 to 500 nM |  | 0.01 to 100 nM | 0.01 to 100 nM | > 5000 nM | 0.01 to 100 nM |  | > 1000 nM
CCn1nc(-c2ccc(Cl)cc2)cc1N(C)c1cc2c(cn1)ncn2C [Compound 307, [5-(4-Chloro-phenyl)-2-ethyl-2H-pyrazol-3-yl]-methyl-(1-methyl-1H-imidazo[4,5-c]pyridin-6-yl)-amine] | 101 to 500 nM |  | 101 to 500 nM | 0.01 to 100 nM | > 5000 nM | 101 to 500 nM |  | > 1000 nM
CCc1cc(C2=CCN(C(=O)C(C)O)CC2)ccc1N(C)c1cc2c(cn1)ncn2C (stereo not shown) [Compound 201, 1-(4-(3-ethyl-4-(methyl(1-methyl-1H-imidazo[4,5-c]pyridin-6-yl)amino)phenyl)-5,6-dihydropyridin-1(2H)-yl)-2-hydroxypropan-1-one] | 101 to 500 nM | 1 to 500 nM | 0.01 to 100 nM | 0.01 to 100 nM |  |  |  | 501 to 1000 nM
CCc1cc(C(N)=O)ccc1N(C)c1cc2c(cn1)ncn2C [Compound 137, 3-Ethyl-4-(methyl(1-methyl-1H-imidazo[4,5-c]pyridin-6-yl)amino)benzamide] |  | 501 to 1000 nM |  |  |  |  |  | > 1000 nM
CCc1cc(C2CCN(C(=O)C(F)F)CC2)ccc1N(C)c1cc2c(cn1)ncn2C [Compound 225, 1-(4-(3-ethyl-4-(methyl(1-methyl-1H-imidazo[4,5-c]pyridin-6-yl)amino)phenyl)piperidin-1-yl)-2,2-difluoroethanone] | 0.01 to 100 nM |  | 0.01 to 100 nM | 0.01 to 100 nM | 1000 to 5000 nM |  | 501 to 1000 nM | 
CCc1cc(C(C#N)N2CC(NC(=O)OC(C)(C)C)C2)ccc1N(C)c1cc2c(cn1)ncn2C (stereo not shown) [Compound 436, [1-(Cyano-{3-ethyl-4-[methyl-(1-methyl-1H-imidazo[4,5-c]pyridin-6-yl)-amino]-phenyl}-methyl)-azetidin-3-yl]-carbamic acid tert-butyl ester] | 101 to 500 nM |  | 0.01 to 100 nM | 0.01 to 100 nM |  | 0.01 to 100 nM |  | > 1000 nM
